Experimental data: patent US7867998B2, “Method of making antitussive medicine and relieving cough” (Hong Kong Jockey Club Institute of Chinese Medicine Limited, priority 2005, dated 2011)

Assays:
guinea pigs = assay: Antitussive assay: citric acid aerosol-induced cough in conscious guinea pigs, intragastric administration; type: in vivo, guinea pig; conditions: 0.5 M citric acid aerosol for 10 min, versus 1st challenge, HCl salt form in saline
Method: Unrestrained conscious guinea pigs were individually placed in a transparent Perspex airtight chamber and exposed to 0.5 M citric acid aerosol produced by an ultrasonic nebulizer (NEU12, Omron, Tokyo, Japan) for 10 min with a flow rate of 0.6 ml/min. During the 10 min observation period, the animals were continuously observed, and the numbers and timing of typical body movement of cough responses including opening the mouth, contraction of thoracic and abdomen muscles and a jerking of the front body were noted. The cough sounds were concurrently picked up via a microphone which connected to a personal computer and analyzed by Cool Edit 2000 software (Syntrillium, Phenix, USA). Thus a cough response can be differentiated from a sneeze and other background noises by observation of body movements, cough sound from loudspeakers and wave patterns recorded in the computer. Animals producing cough more than 18 times but less than 30 in the first challenge were selected for further antitussive tests. Cough episodes during the first challenge were recorded as control data. After 72 hour recovery, the selected sensitive animals were randomly divided into several groups with six animals in each group. The test samples were changed to their salt forms with 4% HCl to dissolve in saline and administrated intragastrically.
In the present experiments, neotuberostemonine produced a reduction in cough episodes by 17 and 40% (P<0.01 versus 1st challenge) at 25 and 50 mg/kg i.g., respectively. […] These two alkaloids are different from neotuberostemonine in molecular skeletons (i.e., base structures). Neotuberostemonine belongs to the stenine group while croomine and stemoninine belong to the tuberostemospironine and stemoamide groups, respectively. […] Since croomine and stemoninine are the major components of Radix Stemonae, they provided scientific evidence for the use of Radix Stemonae for cough treatment in folk medicines and in PRC Pharmacopeia.

cough = conditions: intraperitoneal, at the same dosage; Chung et al., Planta Med. 2003; cited from earlier work

SMILES | reduction in cough episodes (guinea pigs; 25 mg/kg i.g.) [%] | reduction in cough episodes (guinea pigs; 50 mg/kg i.g.) [%] | inhibition (of cough) (cough) [%]
C[C@@H]1C[C@]2(CCCCN3[C@H]2CC[C@H]3[C@@H]2C[C@H](C)C(=O)O2)OC1=O [croomine, Croomine] | 35 | 57 | 
CC[C@@H]1[C@H]2CCCCN3[C@H]2[C@@H](C[C@H]3[C@@H]2C[C@H](C)C(=O)O2)[C@H]2[C@@H]1OC(=O)[C@H]2C [neotuberostemonine, reference compound] | 17 | 40 | 85
CC[C@H]1[C@H]2[C@@H](CCCN3[C@H]2CC[C@H]3[C@@H]2C[C@H](C)C(=O)O2)O[C@]12C=C(C)C(=O)O2 [Stemoninine] | 32 | 66 | 
